In the NIST ThermoML archive (doi:10.1016/j.jct.2007.01.010):

How the values were obtained:
[1] = xn = mol fraction of the nth substance listed; settings: 101 kPa, Liquid
[2] = 101 kPa, Liquid

CCOCCOCCO [3,6-dioxa-1-octanol] + CCOC(C)(C)C
viscosity [mPa·s], [1]
Settings	293.15 K	298.15 K	303.15 K
x2 = 0	4.464	3.976	3.531
x2 = 0.05	3.992	3.574	3.192
x2 = 0.1	3.505	3.156	2.836
x2 = 0.1501	3.037	2.746	2.49
x2 = 0.2	2.637	2.398	2.183
x2 = 0.2498	2.289	2.093	1.912
x2 = 0.2999	1.991	1.828	1.683
x2 = 0.3497	1.744	1.605	1.48
x2 = 0.3999	1.526	1.413	1.312
x2 = 0.4502	1.343	1.245	1.16
x2 = 0.5002	1.184	1.103	1.03
x2 = 0.55	1.049	0.979	0.918
x2 = 0.5997	0.932	0.872	0.82
x2 = 0.6504	0.832	0.78	0.736
x2 = 0.7003	0.749	0.704	0.667
x2 = 0.7503	0.682	0.643	0.611
x2 = 0.7998	0.63	0.596	0.568
x2 = 0.8498	0.591	0.562	0.536
x2 = 0.9	0.563	0.536	0.512
x2 = 0.95	0.545	0.519	0.495

CCOCCOCCO [3,6-dioxa-1-octanol]
[2]
Settings	viscosity [mPa·s]
293.15 K	4.464
298.15 K	3.976
303.15 K	3.531

CCOCCOCCOCCO [2-(2-(2-ethoxyethoxy)ethoxy)ethanol] + CCOC(C)(C)C
viscosity [mPa·s], [1]
Settings	293.15 K	298.15 K	303.15 K
x2 = 0	8.087	7.049	6.421
x2 = 0.0501	6.804	5.991	5.485
x2 = 0.0996	5.742	5.091	4.685
x2 = 0.1502	4.816	4.304	3.982
x2 = 0.1999	4.042	3.643	3.389
x2 = 0.2502	3.391	3.076	2.874
x2 = 0.3005	2.841	2.597	2.437
x2 = 0.3506	2.383	2.195	2.067
x2 = 0.4	2.008	1.863	1.759
x2 = 0.4502	1.692	1.582	1.495
x2 = 0.5	1.435	1.351	1.278
x2 = 0.55	1.225	1.16	1.096
x2 = 0.5955	1.067	1.013	0.959
x2 = 0.6498	0.915	0.873	0.824
x2 = 0.7	0.804	0.77	0.727
x2 = 0.7502	0.714	0.689	0.654
x2 = 0.7982	0.647	0.628	0.598
x2 = 0.8491	0.593	0.581	0.555
x2 = 0.9	0.555	0.549	0.524
x2 = 0.95	0.533	0.528	0.502

CCOC(C)(C)C [2-ethoxy-2-methylpropane] + CCOCCOCCOCCO
[1], x1 = 1
Settings	viscosity [mPa·s]
293.15 K	0.532
298.15 K	0.504
303.15 K	0.478

CCOCCO [2-ethoxyethan-1-ol]
[2]
Settings	viscosity [mPa·s]
293.15 K	2.142
298.15 K	1.848
303.15 K	1.646
